Results taken from paper PMC12259270, “Sensory neuron–expressed FGF13 controls nociceptive signaling in diabetic neuropathy models” (The Journal of Clinical Investigation, 2025).
Values joined by “and” are separate entries in the source; they are usually repeats but may differ in a detail not shown here. Equal values may be shown once. Residues, ends and D or L forms follow the SMILES beside them. *: point of attachment. NHPh = c1ccc(N*)cc1

Biological target: T1, human Nav1.7 (Homo sapiens, UniProt Q15858)
T1 construct: expressed in transfected cells; host or cells: HEK293 stably expressing human Nav1.7
T1 sequence (Q92913 1-192 partner limits assumed): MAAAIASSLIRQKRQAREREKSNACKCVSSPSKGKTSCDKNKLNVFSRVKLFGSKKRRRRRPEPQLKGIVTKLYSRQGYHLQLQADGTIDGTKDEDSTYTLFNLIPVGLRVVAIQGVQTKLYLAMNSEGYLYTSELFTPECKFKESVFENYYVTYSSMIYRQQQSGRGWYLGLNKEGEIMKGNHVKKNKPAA
T1 sequence (Q15858 1-1977 isoform Q15858-3): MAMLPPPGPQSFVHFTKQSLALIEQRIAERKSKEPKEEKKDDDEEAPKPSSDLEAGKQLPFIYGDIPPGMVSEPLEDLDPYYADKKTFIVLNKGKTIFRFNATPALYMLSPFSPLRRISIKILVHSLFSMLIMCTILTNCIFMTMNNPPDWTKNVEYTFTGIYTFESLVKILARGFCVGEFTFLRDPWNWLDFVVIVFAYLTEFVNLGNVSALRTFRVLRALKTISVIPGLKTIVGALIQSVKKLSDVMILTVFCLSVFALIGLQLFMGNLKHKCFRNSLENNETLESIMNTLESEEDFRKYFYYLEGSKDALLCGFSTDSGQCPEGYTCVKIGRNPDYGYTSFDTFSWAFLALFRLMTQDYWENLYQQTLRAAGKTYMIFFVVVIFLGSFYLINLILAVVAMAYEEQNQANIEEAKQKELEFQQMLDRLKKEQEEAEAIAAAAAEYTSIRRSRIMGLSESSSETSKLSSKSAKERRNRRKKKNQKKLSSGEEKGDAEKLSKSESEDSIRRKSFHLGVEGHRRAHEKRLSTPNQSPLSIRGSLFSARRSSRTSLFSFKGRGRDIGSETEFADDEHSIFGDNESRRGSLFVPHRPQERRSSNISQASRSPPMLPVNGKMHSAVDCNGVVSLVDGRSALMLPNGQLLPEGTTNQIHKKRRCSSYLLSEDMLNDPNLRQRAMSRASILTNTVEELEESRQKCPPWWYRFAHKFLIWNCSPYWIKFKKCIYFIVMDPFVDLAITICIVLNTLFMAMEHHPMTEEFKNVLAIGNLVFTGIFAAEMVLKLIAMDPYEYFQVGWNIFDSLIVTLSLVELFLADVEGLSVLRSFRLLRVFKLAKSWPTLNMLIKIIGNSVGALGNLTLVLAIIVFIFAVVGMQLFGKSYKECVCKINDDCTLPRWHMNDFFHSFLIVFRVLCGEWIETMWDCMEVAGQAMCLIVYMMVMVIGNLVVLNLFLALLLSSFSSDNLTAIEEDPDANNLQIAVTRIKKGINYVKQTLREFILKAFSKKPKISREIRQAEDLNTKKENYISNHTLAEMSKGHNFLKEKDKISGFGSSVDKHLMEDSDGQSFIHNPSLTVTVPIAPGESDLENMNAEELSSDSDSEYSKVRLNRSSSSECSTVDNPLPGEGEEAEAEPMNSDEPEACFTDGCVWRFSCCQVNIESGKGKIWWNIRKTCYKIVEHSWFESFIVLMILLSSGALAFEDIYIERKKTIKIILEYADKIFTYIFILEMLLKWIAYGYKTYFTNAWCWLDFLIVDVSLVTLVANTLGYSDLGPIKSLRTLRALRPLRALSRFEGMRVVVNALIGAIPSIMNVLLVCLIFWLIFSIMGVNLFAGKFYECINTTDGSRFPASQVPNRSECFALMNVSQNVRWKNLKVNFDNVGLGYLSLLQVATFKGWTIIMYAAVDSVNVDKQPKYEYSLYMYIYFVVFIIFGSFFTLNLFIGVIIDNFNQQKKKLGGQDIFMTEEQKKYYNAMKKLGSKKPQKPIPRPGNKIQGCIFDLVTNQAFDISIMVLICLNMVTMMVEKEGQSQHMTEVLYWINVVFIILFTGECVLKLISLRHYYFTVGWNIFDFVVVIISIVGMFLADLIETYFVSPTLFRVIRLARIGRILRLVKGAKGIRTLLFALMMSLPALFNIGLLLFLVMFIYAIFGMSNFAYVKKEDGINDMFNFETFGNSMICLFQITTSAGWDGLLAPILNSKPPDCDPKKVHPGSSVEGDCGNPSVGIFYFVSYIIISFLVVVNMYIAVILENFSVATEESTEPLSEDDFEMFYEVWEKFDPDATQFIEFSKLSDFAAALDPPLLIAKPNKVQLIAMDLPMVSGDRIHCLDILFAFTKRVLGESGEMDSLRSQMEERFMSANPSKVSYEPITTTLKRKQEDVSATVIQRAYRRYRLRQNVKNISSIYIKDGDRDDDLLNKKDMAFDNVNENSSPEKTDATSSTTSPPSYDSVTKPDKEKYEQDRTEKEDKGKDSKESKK
Assay: Whole-cell patch-clamp, HEK293 cells stably expressing human Nav1.7 with GFP or FGF13-GFP
Format: cell-based
Settings: for Activation / LTI, 2nd Pulse / LTI, 3rd Pulse / LTI, 4th Pulse / Peak Density / Steady-State inactivation / Tau (τ): HEK293 Nav1.7; for Figure 4G, Mean per step (normalized) / Figure 4H, Mean per step (step 1 = 100): N 10
Protocol: Whole-cell patch clamp electrophysiology
HEK293-Nav1.7 cells, HEK293 stably expressing human Nav1.6 (HEK-Nav1.6), HEK293 stably expressing human Nav1.5 (HEK-Nav1.5), human hIPSC-derived sensory neurons (RealDRGTM from Anatomic Incorporated 1020F1-1M) and donor-derived DRG neurons were plated at low density on glass coverslips and processed for whole-cell patch clamp electrophysiology in voltage-clamp and/or current clamp mode. Whole-cell patch electrophysiological experiments were conducted following previously published studies (26). Current densities were obtained by dividing INa amplitude by membrane capacitance. Current –voltage relationships were generated by plotting current density as a function of the […]. Conductance (G Na) was calculated by the […]
where INa is the current amplitude at voltage Vm, and Erev is the Na+ reversal potential.
Activation curves were derived by plotting normalized GNa as a function of test potential and fitted using […]
Where GNa,Max is the maximum conductance, Va is the membrane potential of half-maximal activation, Em is the membrane voltage and k is the slope factor. For steady -state inactivation, normalized current amplitude (INa/INa,Max) at the test potential was plotted as a function of prepulse potential (Vm) and fitted using the […]
Where Vh is the potential of half-maximal inactivation, E m is the membrane voltage, and k is the slope factor.
Transient INa inactivation decay was estimated with the standard exponential equation. Inactivation time constant (tau, τ) was fitted with the following equation: […]
where I(t) is the amplitude of the current at time t and Iss is the steady-state current during a single voltage-step.
The goodness of fitting was determined by correlation coefficient (R), and the cutoff of R was set at 0.85. To observe effects on long-term inactivation (LTI), a four-step protocol was employed during which cells were subjected to four 0 mV, 20 ms depolarization pulses separated by −90 mV, 40 ms recovery intervals. To control for various cell sizes, the current densities were calculated by dividing INa peak current amplitude/membrane capacitance (Cm). To represent the fraction of channels entering into LTI, the peak INa observed during depolarization cycles 2-4 was normalized to the peak INa observed during depolarization cycle 1 (INa/INa,Cycle 1) and plotted as a function of the depolarization cycle.
The cumulative (frequency-dependent) use-dependency was determined by applying 20 pulses with a depolarization to −10 mV (50 ms duration) and 50 ms recovery intervals with a train of 20 pulses at 10 Hz from a holding potential at -70 mV. The current pulses were normalized to the first reco rded pulse and the currents at the 2nd to 20th pulses were compared. The same train was used to record use-dependency at various frequencies […]
The rate of recovery from inactivation was recorded at -80 mV with a standard repriming voltage protocol.
The cells were prepulsed to -20 mV for 20 ms to inactivate all currents, then driven back to the recovery potential (Vrec) for increasing recovery durations before the test pulse to 0 mV. The maximum pulse rate was 0.5 Hz. The […]
follows previous publications (16). The time constants were estimated from single exponential decay to time courses measured at recovery potentials ranging from -140 to -60 mV with the protocol as mentioned above.
Electrophysiological Recordings
HEK293 cells: Electrophysiological recordings in HEK293 stably expressing Nav1.7 (HEK-Nav1.7), Nav1.5 (HEK-Nav1.5) or Nav1.6 (HEK-Nav1.6) were performed at room temperature using a MultiClamp 700B or an Axopatch 200B amplifier (Molecular Devices) after incubating coverslips for 60 minutes either with 0.1% DMSO or 50 μM PW164 or ZL192 in the extracellular solution. The composition of recording solutions consisted of the […]
following salts: extracellular (mM): 140 NaCl, 3 KCl, 1 MgCl2, 1 CaCl2, 10 HEPES, 10 glucose, pH 7.3; […]
intracellular (mM): 130 CH3O3 SCs, 1 EGTA, 10 NaCl, 10 HEPES, pH 7.3. […]

SMILES: CC(=O)N[C@@H](Cc1ccccc1)C(=O)N[C@@H](CC(C)C)C(=O)N1CCC[C@H]1C(=O)N[C@@H](CCCCN)C(=O)Nc1ccccc1 [ZL192] (Ac-FLPK-NHPh)
- Activation (FGF13-GFP + ZL192 50 μM): −26.0 ± 0.8 mV
- LTI, 2nd Pulse (FGF13-GFP + ZL192 50 μM): −69.72 ± 5.21 % maximal Na+ current
- LTI, 3rd Pulse (FGF13-GFP + ZL192 50 μM): −60.33 ± 5.60 % maximal Na+ current
- LTI, 4th Pulse (FGF13-GFP + ZL192 50 μM): −59.34 ± 4.68 % maximal Na+ current
- Peak Density (FGF13-GFP + ZL192 50 μM): −139.7 ± 12.3 pA/pF
- Steady-State inactivation (FGF13-GFP + ZL192 50 μM): −66.7 ± 2.6 mV
- Tau (τ) (FGF13-GFP + ZL192 50 μM): 1.2 ± 0.06 ms
- Activation (GFP + ZL192 50 μM): −25.7 ± 0.8 mV
- LTI, 2nd Pulse (GFP + ZL192 50 μM): −67.94 ± 3.77 % maximal Na+ current
- LTI, 3rd Pulse (GFP + ZL192 50 μM): −62.35 ± 57.35 % maximal Na+ current
- LTI, 4th Pulse (GFP + ZL192 50 μM): −60.93 ± 3.90 % maximal Na+ current
- Peak Density (GFP + ZL192 50 μM): −73.5 ± 8.1 pA/pF
- Steady-State inactivation (GFP + ZL192 50 μM): −82.8 ± 1.1 mV
- Tau (τ) (GFP + ZL192 50 μM): 1.3 ± 0.1 ms
- EC50 (HEK-Nav1.7 coexpressing FGF13, Fig 4D, read-out: EC50, potentiation of INa): 8.5 ± 0.9 µM
- Current density pA/pF (Figure 4D), individual cells (Nav1.7 + FGF13-GFP): -168.188 pA/pF and -158.115 pA/pF and -119.568 pA/pF and -127.538 pA/pF and -145.958 pA/pF and -170.525 pA/pF and -75.8621 pA/pF and -128.86 pA/pF and -208.183 pA/pF and -94.6899 pA/pF
- pA/pF Dose response (Figure 4D), individual cells (Nav1.7 + FGF13-GFP, Log (conc(M) -4)): -162.222 pA/pF and -131.216 pA/pF and -115.311 pA/pF and -179.051 pA/pF and -125.271 pA/pF and -135.274 pA/pF
- pA/pF Dose response (Figure 4D), individual cells (Nav1.7 + FGF13-GFP, Log (conc(M) -4.12)): -133.535 pA/pF and -142.569 pA/pF and -148.889 pA/pF
- pA/pF Dose response (Figure 4D), individual cells (Nav1.7 + FGF13-GFP, Log (conc(M) -4.22)): -94.6899 pA/pF and -168.188 pA/pF and -158.115 pA/pF and -119.568 pA/pF and -127.538 pA/pF and -145.958 pA/pF and -170.525 pA/pF and -75.8621 pA/pF and -128.86 pA/pF and -208.183 pA/pF
- pA/pF Dose response (Figure 4D), individual cells (Nav1.7 + FGF13-GFP, Log (conc(M) -4.6)): -142.47 pA/pF and -131.114 pA/pF and -147.185 pA/pF and -132.461 pA/pF and -139.907 pA/pF and -150.76 pA/pF and -140.066 pA/pF
- pA/pF Dose response (Figure 4D), individual cells (Nav1.7 + FGF13-GFP, Log (conc(M) -4.82)): -154.895 pA/pF and -103.016 pA/pF and -135.94 pA/pF and -128.008 pA/pF and -135.582 pA/pF and -110.637 pA/pF and -137.656 pA/pF (2×)
- pA/pF Dose response (Figure 4D), individual cells (Nav1.7 + FGF13-GFP, Log (conc(M) -5)): -99.4552 pA/pF and -132.222 pA/pF and -121.216 pA/pF and -111.311 pA/pF and -169.051 pA/pF and -139.271 pA/pF and -105.274 pA/pF
- pA/pF Dose response (Figure 4D), individual cells (Nav1.7 + FGF13-GFP, Log (conc(M) -5.5)): -112.13 pA/pF and -130.035 pA/pF and -105.009 pA/pF and -123.737 pA/pF and -114.192 pA/pF and -90.2752 pA/pF and -117.316 pA/pF
- pA/pF Dose response (Figure 4D), individual cells (Nav1.7 + FGF13-GFP, Log (conc(M) -6)): -149.506 pA/pF and -142.879 pA/pF and -66.945 pA/pF and -161.516 pA/pF and -59.6444 pA/pF and -67.5751 pA/pF and -70.501 pA/pF and -91.4611 pA/pF and -141.024 pA/pF and -68.796 pA/pF and -57.939 pA/pF
- Figure 4G, Mean per step (normalized) (Nav1.7 + FGF13-GFP, Steps 1): 1
- Figure 4H, Mean per step (step 1 = 100) (Nav1.7 + FGF13-GFP, Steps 1): 100
- Figure 4H, Mean per step (step 1 = 100) (Nav1.7 + FGF13-GFP, Steps 2): 69.7172
- Figure 4G, Mean per step (normalized) (Nav1.7 + FGF13-GFP, Steps 3): 0.9185
- Figure 4H, Mean per step (step 1 = 100) (Nav1.7 + FGF13-GFP, Steps 3): 60.3376
- Figure 4H, Mean per step (step 1 = 100) (Nav1.7 + FGF13-GFP, Steps 4): 59.3427
- Figure 4G, Mean per step (normalized) (Nav1.7 + FGF13-GFP, Steps 5): 0.9162
- Figure 4G, Mean per step (normalized) (Nav1.7 + FGF13-GFP, Steps 10): 0.8818
- Figure 4G, Mean per step (normalized) (Nav1.7 + FGF13-GFP, Steps 15): 0.8857
